This is an account of results in patent US7618958B2, “Stereospecific anxiolytic and anticonvulsant agents with reduced muscle-relaxant, sedative-hypnotic and ataxic effects” (WISYS Technology Foundation, Inc., priority 2004, dated 2009).

Data set [1] deals with male Wistar rats. The experiment in a line: Elevated plus-maze in rats. It is filed as in vivo, rat. Conditions: rats, mean, N 6; for Open Entries: SOLVENT mean 2.57; for Closed Entries: SOLVENT mean 7.14; for Total Distance Travelled (m): SOLVENT mean 9.30; for Total Entries: SOLVENT mean 9.71; for % Open Time: SOLVENT mean 20.43; for % Open Entries: SOLVENT mean 25.57; for Time in open arms: SOLVENT mean 50.29; for Time in closed arms: SOLVENT mean 196.29. The method, then: Except where noted, the methods used were those of Miroslav M., et al., (2004) Pharmacology, Biochemistry and Behavior 79: 279-290. Experiments were carried out on male Wistar rats (Military Farm, Belgrade, Serbia and Montenegro), weighing 200-240 g. All procedures in the study conformed to EEC Directive 86/609 and were approved by the Ethical Committee on Animal Experimentation of the Medical Faculty in Belgrade. The rats were housed in transparent plastic cages, six animals per cage, and had free access to pelleted food and tap water before and after drug administration. The temperature of the animal room was 22±1° C., the relative humidity 40-70%, the illumination 120 1× and the 12/12-h light/dark period (light on at 06:00 h). All handling and testing took place during the light portion of the cycle. Throughout the study the animals were used only once.
Midazolam and flumazenil were generously donated from F. Hoffman-La Roche (Basel, Switzerland). Zolpidem was purchased from Toronto Research Chemicals (North York, Canada) and DMCM from Research Biochemicals (Natick, Mass., USA). All drugs were dissolved/suspended with the aid of sonication in a solvent containing 85% distilled water, 14% propylene glycol and 1% Tween 80™, and were administered intraperitoneally, in a volume of 1 ml/kg, 20 min before testing. Doses are expressed as the base forms of the drugs. In the cases of combined treatment, agonists were administered at separate sites, immediately after the antagonist. Each animal received a total volume of 2 ml/kg of compounds tested or appropriate vehicles, at two different injection sites.
The test apparatus was constructed of sheet metal, with a black rubber floor. It consisted of a maze elevated to a height of 50 cm with two open (50×10 cm) and two enclosed arms (50×10×40 cm), connected by junction area (central platform) measured 10×10 cm. Although the floor was rubberized, a ledge of sheet metal (0.3 cm high) surrounding the open arms was added, to avoid rats falling off. The illumination in the experimental room consisted of one red neon tube fixed on the ceiling, giving light intensity of 10 1× on the surface of the arms. The experiments were carried out during the diurnal phase (between 08:00 and 12:00 h). At the beginning of the experiment, rats were placed in the centre of the maze, facing one of the enclosed arms and observed for 5 min. The observer sat in the same room 1 m from the maze. After each trial, the maze was cleaned with dry and wet towels. Throughout the study, the number of rats per treatment group was 8-14. Each experiment was run over 4 consecutive days, with three control rats per day; as there was no difference in plus-maze activity among control subgroups, they were pooled in a single control group (n=12).
All numerical data presented in the figures were given as the mean±S.E.M. Each dose-response curve (agonist or antagonist alone or agonist+antagonist) was assessed by a one-way ANOVA. If the ANOVA was significant, each treatment condition was compared with the appropriate solvent control by a Dunnett's test (a=0.05). In case of significant effect in the number of enclosed arm entries, an analysis of covariance (ANCOVA) was performed in the anxiety-related parameters using the number of enclosed arm entries as covariate. Interactions between the agonists and antagonists were analyzed separately with a two-way ANOVA [factors: agonist dose versus cotreatment (an antagonist or saline)]; pairwise comparisons for the assessment of the antagonist influence on the agonist effects were conducted by Tukey's test, one of the methods recommended even in the absence of an overall significant F-test (Wilcox R R. New designs in analysis of variance. Annu Rev Psychol 1987; 38: 29-60). Statistical analyses were performed with commercial statistical software for PC, Stat for Windows R. 5.0.

The test system of data set [2] is Male Sprague-Dawley rats. The experiment in a line: Discriminative stimulus effects of chlordiazepoxide in rats (drug discrimination). The conditions noted are these: ratio of lowest effective anxiolytic dose (situational anxiety) and lowest effective dose producing chlordiazepoxide-like effects in drug discrimination.
In data set [3] the test system is Male CF1 mice. The data set can be described thus: Protection from pentylenetetrazole-induced seizures. The format is in vivo, mouse. The conditions noted are these: PO 60 min before pentylenetetrazole 125 mg/kg s.c. The protocol: Protection from Pentylenetetrazole-Induced Seizures
Male CF1 mice weighing 20-22 g at the time of the experiment were purchased from Charles River Laboratories (Wilmington, Mass.). Pentylenetetrazole (Sigma Chemical Co.) was administered at 125 mg/kg s.c. The number of animals surviving was recorded at 30 minutes and 60 minutes after administration of pentylenetetrazole.
Drug Administration: All drugs were administered PO 60 minutes before administration of pentyenetetrazole.
Data Analysis: The data are presented as the percent of animals protected from death. The data were analyzed by Chi Square statistics. The significance level was set at p<0.05.
Mice treated with certain compounds of the present invention were subjected to pentylenetetrazole (PTZ) at 125 mg/kg to induce seizures. The percent of animals protected from death within one hour of PTZ was measured.

Setting [4] is: DZP 1.25 mg/kg ip, t test p ≦ 0.05.

`O=C(OCC(Cl)(Cl)Cl)c1ncn2c1CN=C(c1ccccc1)c1cc(Br)ccc1-2`: the melting point (as a rule, the temperature of the solid-liquid transition) lay in the range of 113 to 116 °C.

For the compound `CCOC(=O)c1ncn2c1C(C)N=C(c1ccccc1F)c1cc(C#C[Si](C)(C)C)ccc1-2` (centres unmarked), the melting point fell in the range of 186 to 187 °C.

With `C#Cc1ccc2c(c1)C(c1ccccc1F)=NC(C)c1c(C(=O)OCC)ncn1-2` (centres unmarked) [SH-053-2′F-S—CH3, 8-Ethynyl-6-(2-fluorophenyl)-4-methyl-4H-2,5,10b-triaza-benzo[e]azulene-3-carboxylic acid ethyl ester], the “Open Entries” value in data set [1] (SH-053-2′F-S—CH3 10 mg/kg ip, t test p = 0.503) was 3.33. Moreover, the “Closed Entries” value in data set [1] (SH-053-2′F-S—CH3 10 mg/kg ip, t test p ≦ 0.05) is 4.67. The “Total Distance Travelled (m)” value in data set [1] (SH-053-2′F-S—CH3 10 mg/kg ip, t test p = 0.080) stood at 6.91 m. Moreover, in data set [1] (SH-053-2′F-S—CH3 10 mg/kg ip, t test p = 0.239), the “Total Entries” value is given as 8.00. In addition, the “% Open Time” value in data set [1] (SH-053-2′F-S—CH3 10 mg/kg ip, t test p = 0.536) turned out to be 25.00%. In addition, the “% Open Entries” value in data set [1] (SH-053-2′F-S—CH3 10 mg/kg ip, t test p = 0.147) amounted to 37.17%. In data set [1] (SH-053-2′F-S—CH3 10 mg/kg ip, printed t test line doubtful), the “Time in open arms” value stood at 60.50. In addition, the “Time in closed arms” value in data set [1] (SH-053-2′F-S—CH3 10 mg/kg ip, t test p = 0.586) was 183.33.

For the compound `O=C(OCC(F)(F)F)c1ncn2c1CN=C(c1ccccc1)c1cc(Br)ccc1-2`, the melting point lay within 202 to 204 °C.

Take `C#Cc1ccc2c(c1)C(c1ccccn1)=NCC(=O)N2C`: the melting point lay within 190 to 191 °C.

For `CCOC(=O)c1ncn2c1C(C)N=C(c1ccccn1)c1cc(C#C[Si](C)(C)C)ccc1-2` (centres unmarked), the melting point was 197 to 198 °C.

Take `CCOC(=O)c1ncn2c1C(C)N=C(c1ccccc1)c1cc(Br)ccc1-2` (centres unmarked): the melting point was 164 to 165 °C.

As to `CCOC(=O)c1ncn2c1CN=C(c1ccccc1)c1cc(Cl)ccc1-2`, the melting point was in the range of 174 to 175 °C.

For the compound `CN1C(=O)CN=C(c2ccccc2)c2cc(Cl)ccc21` [Diazepam, reference compound], the Antianxiety/abuse liability in data set [2] turned out to be 5. Moreover, in data set [3], the “PTZ Seizures, effective dose” value is less than 10 mg/kg. Moreover, in data set [1] (setting [4]), the “Open Entries” value came to 4.83, the “% Open Time” value came out at 46.33% and the “% Open Entries” value was 47.00%. Further, the “Closed Entries” value in data set [1] (DZP 1.25 mg/kg ip, t test p = 0.292) came to 5.50. Also, in data set [1] (DZP 1.25 mg/kg ip, t test p = 0.670), the “Total Distance Travelled (m)” value was 8.59 m. In data set [1] (DZP 1.25 mg/kg ip, t test p = 0.745), the “Total Entries” value is 10.33. The “Time in open arms” value in data set [1] (DZP 1.25 mg/kg ip, t test p = 0.052) is recorded as 104.17. For the same compound, the “Time in closed arms” value in data set [1] (DZP 1.25 mg/kg ip, t test p = 0.064) came out at 129.50.

For the compound `C[Si](C)(C)C#Cc1ccc2c(c1)C(c1ccccc1)=NCc1c(C(=O)OCC(F)(F)F)ncn1-2`, the melting point is 107 to 110 °C.

Compound `CCOC(=O)c1ncn2c1C(C)N=C(c1ccccc1)c1cc(C#C[Si](C)(C)C)ccc1-2` (centres unmarked) had a melting point of 160 to 162 °C.

Regarding `CNC1=Nc2ccc(C#C[Si](C)(C)C)cc2C(c2ccccc2)=NC1`, the melting point fell in the range of 210 to 211 °C.

Turning to `Cc1nnc2n1-c1ccc(C#CC(C)(C)C)cc1C(c1ccccc1)=NC2`, the melting point was 184 to 186 °C.

For the compound `Cc1nnc2n1-c1ccc(C#CC(C)(C)C)cc1C(c1ccccc1Cl)=NC2`, the melting point is > 268 °C (dec.).

As to `CCOC(=O)c1ncn2c1CN=C(c1ccccn1)c1cc(C#C[Si](C)(C)C)ccc1-2`, the melting point was in the range of 205 to 206 °C.

`CN1C(=O)CN=C(c2ccccn2)c2cc(C#C[Si](C)(C)C)ccc21` returned a melting point of 194 to 195 °C.

With `CNC1=Nc2ccc(Br)cc2C(c2ccccc2)=NC1`, the melting point lay in the range of 234 to 235 °C.

In the case of `CCOC(=O)c1ncn2c1CN=C(c1cccs1)c1cc(C#C[Si](C)(C)C)ccc1-2`, the melting point lay in the range of 124 to 127 °C.

The compound `CC(C)(C)OC(=O)c1ncn2c1CN=C(c1ccccc1)c1cc(Br)ccc1-2` displayed a melting point of 222 to 223 °C.
